Counter-ions that a name gives are not always drawn.
Key:
BTK = biological target: T1, BTK (Homo sapiens, UniProt Q06187); test: BTK degradation in TMD-8 cells (HTRF assay); format: cell-based; conditions: 6 h treatment, HTRF BTK degradation IC50 (DC50)
T1 construct: endogenous in cells; host or cells: TMD-8 cells
In short: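 TMD-8 cells exposed to 8 concentrations (6-fold serial dilution from 1 mM 500× DMSO stocks; 0.2% DMSO final) for 6 h. Lysates incubated overnight at room temperature with HTRF antibodies, read at 665/620 nm. DC50 from four-parameter logistic fit of percent inhibition.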

HEK-293 cells = test: HEK-293 cytotoxicity detection (CellTiter-Glo); format: cell-based; conditions: Homo sapiens, 72 h incubation, read-out: HEK293
In short: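 HEK-293 cells exposed 72 h to 8 compound concentrations (4-fold dilution series, 0.2% DMSO). Viability read as CellTiter-Glo luminescence; IC50 from four-parameter logistic fit of percent inhibition.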

T1 sequence (Q06187 whole entry): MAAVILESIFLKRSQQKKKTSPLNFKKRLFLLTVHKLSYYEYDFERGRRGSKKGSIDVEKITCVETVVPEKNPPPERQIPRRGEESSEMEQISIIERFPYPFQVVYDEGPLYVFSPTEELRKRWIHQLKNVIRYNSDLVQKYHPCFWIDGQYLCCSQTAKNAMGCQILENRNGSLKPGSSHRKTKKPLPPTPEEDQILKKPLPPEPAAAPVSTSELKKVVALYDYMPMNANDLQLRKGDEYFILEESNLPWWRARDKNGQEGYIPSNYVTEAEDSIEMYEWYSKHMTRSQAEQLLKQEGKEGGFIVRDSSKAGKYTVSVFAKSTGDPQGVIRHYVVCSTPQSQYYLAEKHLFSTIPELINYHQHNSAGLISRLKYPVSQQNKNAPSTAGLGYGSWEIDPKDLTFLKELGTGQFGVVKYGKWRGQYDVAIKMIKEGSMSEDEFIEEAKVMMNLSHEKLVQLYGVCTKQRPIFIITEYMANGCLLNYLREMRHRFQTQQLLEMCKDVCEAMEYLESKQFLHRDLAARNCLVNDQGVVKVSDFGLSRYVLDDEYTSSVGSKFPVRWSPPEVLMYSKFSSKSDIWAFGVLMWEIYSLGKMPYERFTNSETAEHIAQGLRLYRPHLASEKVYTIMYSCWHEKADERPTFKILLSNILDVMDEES

SMILES	DC50 (BTK) [nM]	IC50 (HEK-293 cells) [nM]
Cc1cc(-c2cc(Nc3ccc(N4CCC5(CCN(CC6CCN(c7ccc(N8CCC(=O)NC8=O)cc7)CC6)CC5)CC4)cn3)ncn2)ccc1[C@@H](C)NC(=O)c1nc(C(C)(C)C)no1 [Example 34, (R)-3-(tert-butyl)-N-(1-(4-(6-((5-(9-((1-(4-(2,4-dioxotetrahydropyrimidin-1(2H)-yl)phenyl)piperidin-4-yl)methyl)-3,9-diazaspiro [5.5]undecan-3-yl)pyridin-2-yl)amino)pyrimidin-4-yl)-2-methylphenyl)ethyl)-1,2,4-oxadiazole-5-carboxamide]	1.88	891
Cc1cc(-c2cc(Nc3ccc(N4CC5(CN(C(=O)C6CN(c7ccc(N8CCC(=O)NC8=O)cc7)C6)C5)C4)cn3)ncn2)ccc1[C@@H](C)NC(=O)c1nc(C(C)(C)C)no1 [Example 35, (R)-3-(tert-butyl)-N-(1-(4-(6-((5-(6-(1-(4-(2,4-dioxotetrahydropyrimidin-1(2H)-yl)phenyl)azetidine-3-carbonyl)-2,6-diazaspiro [3.3]heptan-2-yl)pyridin-2-yl)amino)pyrimidin-4-yl)-2-methylphenyl)ethyl)-1,2,4-oxadiazole-5-carboxamide]	0.981	> 10000
Cc1cc(-c2cc(Nc3ccc(N4CCC5(CC4)CN(C(=O)C4CN(c6ccc(N7CCC(=O)NC7=O)cc6)C4)C5)cn3)ncn2)ccc1[C@@H](C)NC(=O)c1nc(C(C)(C)C)no1 [Example 36, (R)-3-(tert-butyl)-N-(1-(4-(6-((5-(2-(1-(4-(2,4-dioxotetrahydropyrimidin-1(2H)-yl)phenyl)azetidine-3-carbonyl)-2,7-diazaspiro [3.5]nonan-7-yl)pyridin-2-yl)amino)pyrimidin-4-yl)-2-methylphenyl)ethyl)-1,2,4-oxadiazole-5-carboxamide]	0.566	> 10000
Cc1cc(-c2cc(Nc3ccc(N4CC5(CN(C(=O)C6CCN(c7ccc(N8CCC(=O)NC8=O)cc7)C6)C5)C4)cn3)ncn2)ccc1[C@@H](C)NC(=O)c1nc(C(C)(C)C)no1 (stereo partly drawn) [Example 37, 3-(tert-butyl)-N-((1R)-1-(4-(6-((5-(6-(1-(4-(2,4-dioxotetrahydropyrimidin-1(2H)-yl)phenyl)pyrrolidine-3-carbonyl)-2,6-diazaspiro [3.3]heptan-2-yl)pyridin-2-yl)amino)pyrimidin-4-yl)-2-methylphenyl)ethyl)-1,2,4-oxadiazole-5-carboxamide]	0.835	> 10000
Cc1cc(-c2cc(Nc3ccc(N4CCC5(CC4)CN(C(=O)C4CCN(c6ccc(N7CCC(=O)NC7=O)cc6)C4)C5)cn3)ncn2)ccc1[C@@H](C)NC(=O)c1nc(C(C)(C)C)no1 (stereo partly drawn) [Example 38, 3-(tert-butyl)-N-((1R)-1-(4-(6-((5-(2-(1-(4-(2,4-dioxotetrahydropyrimidin-1(2H)-yl)phenyl)pyrrolidine-3-carbonyl)-2,7-diazaspiro[3.5]nonan-7-yl)pyridin-2-yl)amino)pyrimidin-4-yl)-2-methylphenyl)ethyl)-1,2,4-oxadiazole-5-carboxamide]	0.954	> 10000
Cc1cc(-c2cc(Nc3ccc(N4CCN(C5CN(C6CN(c7ccc(N8CCC(=O)NC8=O)cc7)C6)C5)CC4)cn3)ncn2)ccc1[C@@H](C)NC(=O)c1nc(C(C)(C)C)no1 [Example 39, (R)-3-(tert-butyl)-N-(1-(4-(6-((5-(4-(1′-(4-(2,4-dioxotetrahydropyrimidin-1(2H)-yl)phenyl)-[1,3′-biazetidin]-3-yl)piperazin-1-yl)pyridin-2-yl)amino)pyrimidin-4-yl)-2-methylphenyl)ethyl)-1,2,4-oxadiazole-5-carboxamide]	0.209	> 10000
Cc1cc(-c2cc(Nc3ccc(N4CCN(C5CN(c6ccc(N7CCC(=O)NC7=O)cc6)C5)CC4)cn3)ncn2)ccc1[C@@H](C)NC(=O)c1nc(C(C)(C)C)no1 [Example 40, (R)-3-(tert-butyl)-N-(1-(4-(6-((5-(4-(1-(4-(2,4-dioxotetrahydropyrimidin-1(2H)-yl)phenyl)azetidin-3-yl)piperazin-1-yl)pyridin-2-yl)amino)pyrimidin-4-yl)-2-methylphenyl)ethyl)-1,2,4-oxadiazole-5-carboxamide]	0.382	> 10000
Cc1cc(-c2cc(Nc3ccc(N4CCN(C5CN(c6ccc(C7CCC(=O)NC7=O)cc6)C5)CC4)cn3)ncn2)ccc1[C@@H](C)NC(=O)c1nc(C(C)(C)C)no1 (stereo partly drawn) [Example 41, 3-(tert-butyl)-N-((1R)-1-(4-(6-((5-(4-(1-(4-(2,6-dioxopiperidin-3-yl)phenyl)azetidin-3-yl)piperazin-1-yl)pyridin-2-yl)amino)pyrimidin-4-yl)-2-methylphenyl)ethyl)-1,2,4-oxadiazole-5-carboxamide]	2.47	> 10000
Cc1cc(-c2cc(Nc3ccc(N4CCN(C5CN(C6CN(c7ccc(C8CCC(=O)NC8=O)cc7)C6)C5)CC4)cn3)ncn2)ccc1[C@@H](C)NC(=O)c1nc(C(C)(C)C)no1 (stereo partly drawn) [Example 42, 3-(tert-butyl)-N-((1R)-1-(4-(6-((5-(4-(1′-(4-(2,6-dioxopiperidin-3-yl)phenyl)-[1,3′-biazetidin]-3-yl)piperazin-1-yl)pyridin-2-yl)amino)pyrimidin-4-yl)-2-methylphenyl)ethyl)-1,2,4-oxadiazole-5-carboxamide]	1.2	> 10000
Cc1cc(-c2cc(Nc3ccc(N4CCN(C5CC6(CCN(c7ccc(N8CCC(=O)NC8=O)cc7)CC6)C5)CC4)cn3)ncn2)ccc1[C@@H](C)NC(=O)c1nc(C(C)(C)C)no1 [Example 43, (R)-3-(tert-butyl)-N-(1-(4-(6-((5-(4-(7-(4-(2,4-dioxotetrahydropyrimidin-1(2H)-yl)phenyl)-7-azaspiro[3.5]nonan-2-yl)piperazin-1-yl)pyridin-2-yl)amino)pyrimidin-4-yl)-2-methylphenyl)ethyl)-14-oxadiazole-5-carboxamide]	2.99	> 10000
Cc1cc(-c2cc(Nc3ccc(N4CCN(C5CN(C6CN(c7ccc8c(c7)C(=O)N(C7CCC(=O)NC7=O)C8=O)C6)C5)CC4)cn3)ncn2)ccc1[C@@H](C)NC(=O)c1nc(C(C)(C)C)no1 (stereo partly drawn) [Example 44, 3-(tert-butyl)-N-((1R)-1-(4-(6-((5-(4-(1′-(2-(2,6-dioxopiperidin-3-yl)-1,3-dioxoisoindolin-5-yl)-[1,3′-biazetidin]-3-yl)piperazin-1-yl)pyridin-2-yl)amino)pyrimidin-4-yl)-2-methylphenyl)ethyl)-1,2,4-oxadiazole-5-carboxamide]	1.63	> 10000
Cc1cc(-c2cc(Nc3ccc(N4CCN(CCc5cc(F)c(C6CCC(=O)NC6=O)c(F)c5)CC4)cn3)ncn2)ccc1[C@@H](C)NC(=O)c1nc(C(C)(C)C)no1 (stereo partly drawn) [Example 45, 3-(tert-butyl)-N-((1R)-1-(4-(6-((5-(4-(4-(2,6-dioxopiperidin-3-yl)-3,5-difluorophenethyl)piperazin-1-yl)pyridin-2-yl)amino)pyrimidin-4-yl)-2-methylphenyl)ethyl)-1,2,4-oxadiazole-5-carboxamide]	1.75	> 10000
Cc1cc(-c2cc(Nc3ccc(N4CCN(CCc5ccc(C6CCC(=O)NC6=O)c(F)c5)CC4)cn3)ncn2)ccc1[C@@H](C)NC(=O)c1nc(C(C)(C)C)no1 (stereo partly drawn) [Example 47, 3-(tert-butyl)-N-((1R)-1-(4-(6-((5-(4-(4-(2,6-dioxopiperidin-3-yl)-3-fluorophenethyl)piperazin-1-yl)pyridin-2-yl)amino)pyrimidin-4-yl)-2-methylphenyl)ethyl)-1,2,4-oxadiazole-5-carboxamide]	0.96	> 10000
Cc1cc(CCN2CCN(c3ccc(Nc4cc(-c5ccc([C@@H](C)NC(=O)c6nc(C(C)(C)C)no6)c(C)c5)ncn4)nc3)CC2)ccc1C1CCC(=O)NC1=O (stereo partly drawn) [Example 48, 3-(tert-butyl)-N-((1R)-1-(4-(6-((5-(4-(4-(2,6-dioxopiperidin-3-yl)-3-methylphenethyl)piperazin-1-yl)pyridin-2-yl)amino)pyrimidin-4-yl)-2-methylphenyl)ethyl)-1,2,4-oxadiazole-5-carboxamide]	1.44	> 10000
Cc1cc(-c2cc(Nc3ccc(N4CCN(CCc5ccc6c(c5)oc(=O)n6C5CCC(=O)NC5=O)CC4)cn3)ncn2)ccc1[C@@H](C)NC(=O)c1nc(C(C)(C)C)no1 (stereo partly drawn) [Example 49, 3-(tert-butyl)-N-((1R)-1-(4-(6-((5-(4-(2-(3-(2,6-dioxopiperidin-3-yl)-2-oxo-2,3-dihydrobenzo[d]oxazol-6-yl)ethyl)piperazin-1-yl)pyridin-2-yl)amino)pyrimidin-4-yl)-2-methylphenyl)ethyl)-1,2,4-oxadiazole-5-carboxamide]	0.486	> 10000
Cc1cc(-c2cc(Nc3ccc(N4CCN(CCc5cccc6c5n(C)c(=O)n6C5CCC(=O)NC5=O)CC4)cn3)ncn2)ccc1[C@@H](C)NC(=O)c1nc(C(C)(C)C)no1 (stereo partly drawn) [Example 50, 3-(tert-butyl)-N-((1R)-1-(4-(6-((5-(4-(2-(1-(2,6-dioxopiperidin-3-yl)-3-methyl-2-oxo-2,3-dihydro-1H-benzo[d]imidazol-4-yl)ethyl)piperazin-1-yl)pyridin-2-yl)amino)pyrimidin-4-yl)-2-methylphenyl)ethyl)-1,2,4-oxadiazole-5-carboxamide]	0.632	920
Cc1cc(-c2cc(Nc3ccc(N4CCN(CCc5cccc6c5oc(=O)n6C5CCC(=O)NC5=O)CC4)cn3)ncn2)ccc1[C@@H](C)NC(=O)c1nc(C(C)(C)C)no1 (stereo partly drawn) [Example 51, 3-(tert-butyl)-N-((1R)-1-(4-(6-((5-(4-(2-(3-(2,6-dioxopiperidin-3-yl)-2-oxo-2,3-dihydrobenzo[d]oxazol-7-yl)ethyl)piperazin-1-yl)pyridin-2-yl)amino)pyrimidin-4-yl)-2-methylphenyl)ethyl)-1,2,4-oxadiazole-5-carboxamide formate]	1.35	> 10000

Reference: patent US12521440B2, “Degradation of bruton's tyrosine kinase (BTK) by conjugation of BTK inhibitors with E3 ligase ligand and methods of use” (BeOne Medicines I GmbH, priority 2021, dated 2026)
